Results taken from the supplement of paper PMC11451515.

System: P12-Ichikawa
Assay: cell viability relative to DMSO control; higher = less cytotoxic
Settings: 48 h
Summary of the method: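 Viability is expressed as a percentage of DMSO wells within each plate, and cell-free wells serve as background. Seeding densities in the 1536-well plates (5 μl) were 500 cells/well for NOMO1 or SEM leukemia cells and 1000 cells/well for P12-Ichikawa. Each line was adapted for at least four passages in each medium. Library compounds in DMSO were pin-dosed at 47 μM to 0.79 nM (11 points, threefold), and CellTiter-Glo One luminescence was read after 48 h at 37°C.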

[1] = HPLM + 10% dialyzed FBS, 0.000781 µM
[2] = HPLM + 10% dialyzed FBS, 0.00234 µM
[3] = HPLM + 10% dialyzed FBS, 0.00702 µM
[4] = HPLM + 10% dialyzed FBS, 0.0211 µM
[5] = HPLM + 10% dialyzed FBS, 0.0632 µM
[6] = HPLM + 10% dialyzed FBS, 0.19 µM
[7] = HPLM + 10% dialyzed FBS, 0.569 µM
[8] = HPLM + 10% dialyzed FBS, 1.71 µM
[9] = HPLM + 10% dialyzed FBS, 5.12 µM
[10] = HPLM + 10% dialyzed FBS, 15.4 µM
[11] = HPLM + 10% dialyzed FBS, 46.1 µM
[12] = RPMI 5 mM glucose + 10% FBS, 0.000781 µM
[13] = RPMI 5 mM glucose + 10% FBS, 0.00234 µM
[14] = RPMI 5 mM glucose + 10% FBS, 0.00702 µM
[15] = RPMI 5 mM glucose + 10% FBS, 0.0211 µM
[16] = RPMI 5 mM glucose + 10% FBS, 0.0632 µM
[17] = RPMI 5 mM glucose + 10% FBS, 0.19 µM
[18] = RPMI 5 mM glucose + 10% FBS, 0.569 µM
[19] = RPMI 5 mM glucose + 10% FBS, 1.71 µM
[20] = RPMI 5 mM glucose + 10% FBS, 5.12 µM
[21] = RPMI 5 mM glucose + 10% FBS, 15.4 µM
[22] = RPMI 5 mM glucose + 10% FBS, 46.1 µM
[23] = RPMI 5 mM glucose + 10% dialyzed FBS, 0.000781 µM
[24] = RPMI 5 mM glucose + 10% dialyzed FBS, 0.00234 µM
[25] = RPMI 5 mM glucose + 10% dialyzed FBS, 0.00702 µM
[26] = RPMI 5 mM glucose + 10% dialyzed FBS, 0.0211 µM
[27] = RPMI 5 mM glucose + 10% dialyzed FBS, 0.0632 µM
[28] = RPMI 5 mM glucose + 10% dialyzed FBS, 0.19 µM
[29] = RPMI 5 mM glucose + 10% dialyzed FBS, 0.569 µM
[30] = RPMI 5 mM glucose + 10% dialyzed FBS, 1.71 µM
[31] = RPMI 5 mM glucose + 10% dialyzed FBS, 5.12 µM
[32] = RPMI 5 mM glucose + 10% dialyzed FBS, 15.4 µM
[33] = RPMI 5 mM glucose + 10% dialyzed FBS, 46.1 µM

SMILES	cell viability [1] [%]	cell viability [2] [%]	cell viability [3] [%]	cell viability [4] [%]	cell viability [5] [%]	cell viability [6] [%]	cell viability [7] [%]	cell viability [8] [%]	cell viability [9] [%]	cell viability [10] [%]	cell viability [11] [%]	cell viability [12] [%]	cell viability [13] [%]	cell viability [14] [%]	cell viability [15] [%]	cell viability [16] [%]	cell viability [17] [%]	cell viability [18] [%]	cell viability [19] [%]	cell viability [20] [%]	cell viability [21] [%]	cell viability [22] [%]	cell viability [23] [%]	cell viability [24] [%]	cell viability [25] [%]	cell viability [26] [%]	cell viability [27] [%]	cell viability [28] [%]	cell viability [29] [%]	cell viability [30] [%]	cell viability [31] [%]	cell viability [32] [%]	cell viability [33] [%]
Cc1ccc(C)c(OCCCC(C)(C)C(=O)O)c1	87	92.4	90.8	95	101	97.9	93.2	102	106	98	92.1	90	86.9	84.5	90.7	91.1	92.9	89	91.7	84.1	92.4	97.1	81.2	82.9	84.3	92.6	84.5	87.7	85.5	86.6	88.8	88	90
CN(C)Cc1cccc(N/C(=C2\C(=O)Nc3cc(C(=O)N(C)C)ccc32)c2ccccc2)c1	95.7	105	110	101	119	114	111	115	103	93.2	42.3	90.7	114	108	109	114	111	113	106	96	90.3	65	100	111	111	117	120	111	114	118	103	98.2	64.4
COc1ccc(CC2SC(=O)NC2=O)cc1C(=O)NCc1ccc(C(F)(F)F)cc1 (stereo unspecified)	85.3	84.7	90.5	96	88.3	96.3	93.8	95	88.2	83.6	86.9	82.1	78.3	81	87	78.9	83.7	94.5	89.2	86.4	77.2	66.7	79.5	82.5	81.7	71.5	74.3	74.2	80.2	75.1	74.9	69.3	63.6
NCC/1=C/NC(=S)N1[C@H]2CCC3=C(F)C=C(F)C=C3C2	127	114	114	126	123	121	119	121	113	111	92.5	134	125	124	120	129	132	139	127	121	116	92.5	124	117	128	126	120	120	119	119	117	110	72.7
CC(=O)OCC(CCn1cnc2cnc(N)nc21)COC(C)=O	92.3	103	109	106	113	102	108	106	112	110	111	89.8	95	103	103	108	97.3	102	102	101	106	103	92.5	101	98	87.9	105	104	97	106	102	103	97.3
CN(C)c1ccccc1CN1CCCN(Cc2ccccc2N(C)C)C1c1ccncc1	84.7	94.7	101	11.9	102	100	108	111	108	78.3	94.1	84	90.7	94	11	93.7	99	108	105	103	102	80.2	82.3	88.5	82.8	19.7	92.9	91.7	91.1	93.4	101	100	71.9
CC1(C)CCC(=C(\C1)C2=CC=C(Cl)C=C2)/CN3CCN(CC3)C4=CC(=C(C=C4)C(=O)N[S+]([O-])(=O)C5=CC=C(NCC6CCOCC6)C(=C5)[N+]([O-])=O)OC7=CN=C8[NH]C=CC8=C7	98.6	108	104	102	98	98.3	98.5	97.5	83.9	67	49	103	106	114	104	104	100	99.2	89.6	96.5	81.5	68.1	100	103	101	105	96.3	103	99	90.8	96.1	78.1	65.7
